Several values for one entry are separate records, joined by “and”; a condition that tells them apart may be missing. Identical values can stand only once. Counter-ions that a name gives are not always drawn. Like-named read-outs stand apart in the source and are kept apart here.
How the values were obtained:
[1] = Plasma oxymetazoline pharmacokinetics after dermal administration; assay type: in vivo; conditions: human, topical or ocular, repeated dermal administration, once-daily or twice-daily, read-out: effective half-life (mean), range across groups
Protocol: Blood samples were drawn on days 1 and 28 at predose, 2, 4, 6, 8, 10, and 12 hours after the morning dose throughout the study. Additional trough samples were collected on days 2, 14, and 29. The final pharmacokinetic sample was collected on day 35 after all assessments were completed. Plasma was analyzed for oxymetazoline concentrations using a validated liquid chromatography-tandem mass spectrometry method with a lower limit of quantification of 10 pg/mL.
Noncompartmental analysis was performed to determine the maximum observed plasma concentration (Cmax), corresponding time to reach maximum observed plasma concentration (Tmax), area under the plasma concentration-time curve from time 0 to time t (AUC0-t), accumulation ratio (R0), and effective half-life (Teff) of oxymetazoline in plasma. These parameters were calculated, whenever possible. […]
At the selected timepoints, approximately 6 mL of blood was collected into prelabeled K2EDTA lavender top blood collection tubes and gently inverted at least 10 times to ensure adequate mixing of blood and anticoagulant. […] A minimum of 1.0 mL of the harvested plasma was transferred into 2 prelabeled cryovials and stored at −20° C. or below until analyzed. The samples were analyzed using a validated high performance liquid chromatography-tandem mass spectrometry (LC-MS/MS) method with a lower limit of quantitation (LLOQ) of 10 pg/mL. […]

[2] = system: patients with moderate to severe facial erythema associated with rosacea; assay type: in vivo; conditions: for Discontinued: Adverse Event: mITT
Protocol: An adverse event could therefore be any unfavorable and unintended sign (including an abnormal laboratory finding), symptom, or disease temporally associated with the use of a medicinal (investigational) product, whether or not related to the medicinal (investigational) product. In addition, during the screening period, adverse events were assessed regardless of the administration of a pharmaceutical product.
A clinical determination was made of the intensity of an adverse event. The severity assessment for a clinical adverse event was completed using the following definitions as guidelines:
A determination was made of the relationship (if any) between an adverse event and the study drug or study procedure, as applicable. A causal relationship was present if a determination was made that there was a reasonable possibility that the adverse event may have been caused by the drug or study procedure.
Adverse events were coded using preferred terms and primary System Organ Class (SOC) from the Medical Dictionary for Regulatory Activities (MedDRA), version 15.1. Adverse events were collected both for the screening/baseline period (which were referred to as pretreatment adverse events [PTAEs]) and for the study period after treatment was initiated (which were referred to as postbaseline adverse events; ie, adverse events with start date from study day 1 through study exit). A treatment emergent adverse event (TEAE) was defined a postbaseline adverse event where there was no PTAE of the same MedDRA preferred term or the maximum severity during the postbaseline period was more severe than the maximal severity of any PTAE of the same MedDRA preferred term.
For each preferred term, the incidence of TEAEs was presented and summarized on a per-patient basis as follows: • by preferred term in descending order of incidence rate • by primary SOC in alphabetical order, and preferred term • by primary SOC in alphabetical order, preferred term, and severity (maximum severity)
The maximum severity of a TEAE experienced by a patient was determined by the most severe rating recorded on the eCRF for the patient's given TEAE. The incidence of TEAEs was provided for all TEAEs regardless of causality and for treatment-related TEAEs.

[3] = system: patients with moderate to severe facial erythema associated with rosacea; assay: Facial dermal tolerability assessment; assay type: in vivo, human
Protocol: Facial dermal tolerability assessment included the investigator's assessments (dryness and scaling of the treatment area) and the patient's assessments (stinging/burning and pruritus [itching] of skin in the application area) as described below:
Facial dermal tolerability assessment were evaluated by investigators and patients on days 1 (pre-dose, hours 1, 2, 4, 6, 8, 10, and 12), 2 (predose), 14 (predose, hours 1, 2, 4, 6, 8, 10, and 12), 28 (pre-dose, hours 1, 2, 4, 6, 8, 10, and 12), 35, and 56. Investigator's assessments included dryness and scaling and patient's assessment included stinging/burning, and pruritus; each had 4-point scales: 0=none, 1=mild, 2=moderate, 3=severe.
The number and percent of patients with at least a 1 severity increase (worsening) from baseline for 1 or more visits was generated by treatment group for day 1, day 14, day 28, and from day 1 through day 28. Raw values were summarized using shift tables and frequency distributions by treatment group. In addition, analyses of raw values and change from baseline at post-baseline timepoints and visits were performed using descriptive statistics. Baseline was the pre-dose assessment on day 1.

[4] = all oxymetazoline-treated patients

Structure (SMILES): Cc1cc(C(C)(C)C)c(O)c(C)c1CC1=NCCN1 [Oxy, oxymetazoline hydrochloride]
- half-life [1]: 18 to 28 h
- Discontinued: Adverse Event ([2]; BID): 6 (4.4) Number (%) of Patients
- Discontinued: Adverse Event ([2]; QD): 2 (1.5) Number (%) of Patients
- patients who discontinued due to treatment-related application site adverse events ([2]; all Oxy-treated patients): Seven and 7 patients
- patients with application site acne (TEAE) ([2]; all Oxy-treated patients): 1.50%
- patients with contact dermatitis (TEAE) ([2]; all Oxy-treated patients): 2.6%
- patients with severe treatment-related application site events ([2]; all Oxy-treated patients, 7 severe events): 3 patients
- patients who discontinued the study due to TEAEs [2, 4]: 8 patients
- patients with headache (TEAE) [2, 4]: 4.9%
- patients with treatment-related application site adverse events [2, 4]: 28 patients
- patients with TEAEs ([2]; once-daily dosing): 33.8%
- patients with adverse events during the posttreatment period ([2]; once-daily dosing): 8.3%
- patients with adverse events during the treatment period ([2]; once-daily dosing): 28.6%
- patients with treatment-related TEAEs ([2]; once-daily dosing): 9.8%
- patients with discontinuation from the study due to adverse events ([2]; once-daily group): 1.5%
- patients who discontinued the study ([2]; once-daily treatment groups): 3.0%
- patients with TEAEs ([2]; twice-daily dosing): 32.6%
- patients with adverse events during the posttreatment period ([2]; twice-daily dosing): 7.4%
- patients with adverse events during the treatment period ([2]; twice-daily dosing): 26.7%
- patients with treatment-related TEAEs ([2]; twice-daily dosing): 12.6%
- patients who discontinued the study due to adverse events ([2]; twice-daily group): 4.4%
- patients who discontinued the study ([2]; twice-daily treatment groups): 6.7%
- patients with worsening of stinging/burning at the application site ([3]; once-daily, day 1): 12.8%
- patients with worsening of stinging/burning at the application site ([3]; once-daily, day 14): 12.0%
- patients with worsening of stinging/burning at the application site ([3]; once-daily, day 28): 6.0%
- patients with worsening of stinging/burning at the application site ([3]; twice-daily, day 1): 10.4%
- patients with worsening of stinging/burning at the application site ([3]; twice-daily, day 14): 8.9%
- patients with worsening of stinging/burning at the application site ([3]; twice-daily, day 28): 1.5%
